What was measured:
[1] = target: T1, human Nav1.7 (hNav1.7) voltage-gated sodium channel alpha subunit (Homo sapiens, UniProt Q15858); assay: Qube automated patch-clamp electrophysiology, HEK293-hNav1.[…], inactivated state (-70 mV); also thallium flux assay IC50 […]; format: cell-based
T1 construct: gene SCN9A; alpha subunit, stably expressed in HEK293 cells

[2] = target: T1, human Nav1.7 (hNav1.7) voltage-gated sodium channel alpha subunit; assay: Qube automated patch-clamp electrophysiology, HEK293-hNav1.[…], inactivated state (-70 mV); format: cell-based

T1 sequence (Q15858 whole entry): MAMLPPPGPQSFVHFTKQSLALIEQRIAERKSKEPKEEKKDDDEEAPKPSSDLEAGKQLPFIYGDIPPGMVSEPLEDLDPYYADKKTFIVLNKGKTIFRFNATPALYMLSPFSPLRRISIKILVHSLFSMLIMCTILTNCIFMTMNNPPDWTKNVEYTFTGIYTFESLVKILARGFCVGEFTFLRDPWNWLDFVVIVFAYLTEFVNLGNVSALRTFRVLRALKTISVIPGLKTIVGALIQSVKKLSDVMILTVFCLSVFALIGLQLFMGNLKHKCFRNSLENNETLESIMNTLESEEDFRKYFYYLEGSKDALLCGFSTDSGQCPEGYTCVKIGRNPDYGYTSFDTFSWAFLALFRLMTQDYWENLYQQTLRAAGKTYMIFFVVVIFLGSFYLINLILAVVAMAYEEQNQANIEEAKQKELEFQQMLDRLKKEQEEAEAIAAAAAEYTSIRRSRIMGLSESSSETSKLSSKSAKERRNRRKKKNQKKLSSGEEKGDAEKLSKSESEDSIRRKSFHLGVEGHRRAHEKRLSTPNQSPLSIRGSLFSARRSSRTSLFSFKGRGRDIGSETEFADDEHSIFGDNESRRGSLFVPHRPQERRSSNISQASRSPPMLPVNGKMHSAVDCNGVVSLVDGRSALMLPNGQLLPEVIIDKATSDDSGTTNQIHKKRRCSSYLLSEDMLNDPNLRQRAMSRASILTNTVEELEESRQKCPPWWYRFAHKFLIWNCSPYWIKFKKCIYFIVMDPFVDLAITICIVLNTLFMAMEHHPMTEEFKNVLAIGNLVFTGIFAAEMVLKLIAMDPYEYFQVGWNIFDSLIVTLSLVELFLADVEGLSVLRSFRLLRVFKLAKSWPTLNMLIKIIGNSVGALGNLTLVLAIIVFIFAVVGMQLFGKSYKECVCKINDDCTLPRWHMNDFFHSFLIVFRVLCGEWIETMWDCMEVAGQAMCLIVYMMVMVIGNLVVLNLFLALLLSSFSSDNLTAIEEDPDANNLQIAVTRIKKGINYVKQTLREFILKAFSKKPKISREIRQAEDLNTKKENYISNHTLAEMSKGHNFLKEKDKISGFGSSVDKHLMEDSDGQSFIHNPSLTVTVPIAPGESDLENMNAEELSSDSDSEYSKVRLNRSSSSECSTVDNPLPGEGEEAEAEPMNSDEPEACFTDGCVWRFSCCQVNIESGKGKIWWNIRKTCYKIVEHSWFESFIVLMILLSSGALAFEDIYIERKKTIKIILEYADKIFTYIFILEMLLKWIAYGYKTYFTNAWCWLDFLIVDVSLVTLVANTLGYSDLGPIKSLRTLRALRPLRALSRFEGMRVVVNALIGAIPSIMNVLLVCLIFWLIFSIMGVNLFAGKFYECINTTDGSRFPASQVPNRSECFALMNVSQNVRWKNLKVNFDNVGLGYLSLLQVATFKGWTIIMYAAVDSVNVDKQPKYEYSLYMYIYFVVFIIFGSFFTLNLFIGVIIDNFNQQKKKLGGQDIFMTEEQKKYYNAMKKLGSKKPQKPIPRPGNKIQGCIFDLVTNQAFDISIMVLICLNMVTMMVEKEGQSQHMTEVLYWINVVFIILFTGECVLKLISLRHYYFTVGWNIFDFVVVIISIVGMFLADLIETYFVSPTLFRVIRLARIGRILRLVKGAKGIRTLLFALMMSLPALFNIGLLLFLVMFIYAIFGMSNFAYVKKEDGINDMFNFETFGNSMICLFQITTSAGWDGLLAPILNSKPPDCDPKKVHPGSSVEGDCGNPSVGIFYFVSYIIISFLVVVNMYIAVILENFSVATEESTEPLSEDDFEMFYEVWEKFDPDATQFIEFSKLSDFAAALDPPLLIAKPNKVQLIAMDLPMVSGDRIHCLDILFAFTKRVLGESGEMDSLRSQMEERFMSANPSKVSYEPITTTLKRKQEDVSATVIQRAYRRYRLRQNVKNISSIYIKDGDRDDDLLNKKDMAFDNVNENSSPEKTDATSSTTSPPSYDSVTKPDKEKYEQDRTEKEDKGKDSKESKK

CCCCCCCC/C=C\CCCCCCCC(=O)OC(COC(=O)CCCCCCCCCCCCCCC)CO[C@@H]1O[C@H](CO)[C@H](O)[C@H](O)[C@H]1O (stereo partly drawn) [compound 1, 1-palmitoyl-2-oleoyl-3-(β-D-galactosyl)-glycerol]
Kd [1]: 49.9 µM

CCCCCCCCCCCCCCCC(=O)OC[C@H](CO[C@H]1O[C@H](CS(=O)(=O)O)[C@@H](O)[C@H](O)[C@H]1O)OC(=O)CCCCCCCCCCCCCCC [compound 2, sulfoquinovosyldiacylglycerin]
Kd [2]: 25.2 µM

Reference: article PMC12670511, “Discovery of Nav1.7 Inhibitors through the Screening of Marine Natural Product Extracts” (Journal of Natural Products, 2025)
